Results published in patent publication US10670605B2, “Cysteine reactive probes and uses thereof” (The Scripps Research Institute, priority 2015, dated 2020).
One block for each compound: values may come before it.

Experiments:
[1] = target: T1, USP48 C39 (Q86UV5) (Homo sapiens, UniProt Q86UV5); test: Competitive isoTOP-ABPP, cell lysates; assay type: binding; conditions: for isoTOP-ABPP reactivity ratio, Q86UV5_C39 / isoTOP-ABPP reactivity profile ratio, Q86UV5_C39: 500 μm
T1 sequence (Q86UV5 1-1035): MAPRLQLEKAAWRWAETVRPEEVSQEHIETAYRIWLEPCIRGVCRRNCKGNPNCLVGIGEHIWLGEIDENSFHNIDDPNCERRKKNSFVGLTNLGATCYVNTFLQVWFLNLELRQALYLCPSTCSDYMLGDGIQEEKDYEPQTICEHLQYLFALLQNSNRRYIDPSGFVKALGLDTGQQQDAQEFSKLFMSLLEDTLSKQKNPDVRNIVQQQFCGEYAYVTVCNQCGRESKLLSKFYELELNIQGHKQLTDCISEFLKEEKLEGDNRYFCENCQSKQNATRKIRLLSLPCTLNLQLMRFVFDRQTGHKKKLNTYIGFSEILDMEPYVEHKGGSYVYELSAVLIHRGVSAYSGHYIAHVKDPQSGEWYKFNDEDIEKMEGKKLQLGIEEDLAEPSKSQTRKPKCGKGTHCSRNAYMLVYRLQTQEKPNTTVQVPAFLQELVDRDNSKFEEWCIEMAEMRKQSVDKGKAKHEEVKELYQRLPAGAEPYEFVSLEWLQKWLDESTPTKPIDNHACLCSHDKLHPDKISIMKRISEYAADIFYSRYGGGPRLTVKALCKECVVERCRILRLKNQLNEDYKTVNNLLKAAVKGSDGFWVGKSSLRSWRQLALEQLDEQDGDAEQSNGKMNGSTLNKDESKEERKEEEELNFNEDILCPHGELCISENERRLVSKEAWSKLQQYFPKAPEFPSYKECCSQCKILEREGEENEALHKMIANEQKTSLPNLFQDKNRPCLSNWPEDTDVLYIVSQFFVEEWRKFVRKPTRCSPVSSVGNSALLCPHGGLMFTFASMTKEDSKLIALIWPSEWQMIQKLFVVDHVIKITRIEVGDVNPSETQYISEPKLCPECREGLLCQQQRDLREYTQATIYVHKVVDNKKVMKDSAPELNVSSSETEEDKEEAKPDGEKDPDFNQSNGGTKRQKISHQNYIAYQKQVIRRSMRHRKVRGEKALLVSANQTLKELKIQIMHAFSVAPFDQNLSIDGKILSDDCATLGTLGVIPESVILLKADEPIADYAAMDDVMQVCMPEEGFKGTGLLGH

[2] = target: T2, IRF8 C306 (Q02556) (Homo sapiens, UniProt Q02556); test: Competitive isoTOP-ABPP, cell lysates; assay type: binding; conditions: for isoTOP-ABPP reactivity ratio, Q02556_C306 / isoTOP-ABPP reactivity profile ratio, Q02556_C306: 500 μm, in-vitro_ramos
T2 sequence (Q02556 1-426): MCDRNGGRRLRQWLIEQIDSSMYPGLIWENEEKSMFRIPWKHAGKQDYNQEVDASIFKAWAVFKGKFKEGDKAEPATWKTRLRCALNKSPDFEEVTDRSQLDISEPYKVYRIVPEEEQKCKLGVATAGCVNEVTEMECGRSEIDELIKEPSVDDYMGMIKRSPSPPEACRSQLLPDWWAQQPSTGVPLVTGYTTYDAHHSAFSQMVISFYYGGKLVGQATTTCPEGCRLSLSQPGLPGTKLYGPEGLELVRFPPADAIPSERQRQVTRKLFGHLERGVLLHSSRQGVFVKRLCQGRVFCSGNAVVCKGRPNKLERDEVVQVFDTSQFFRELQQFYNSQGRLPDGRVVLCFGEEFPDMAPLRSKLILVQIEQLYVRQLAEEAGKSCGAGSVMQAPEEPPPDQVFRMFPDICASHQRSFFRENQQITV

Compound: COc1ccc(C2CC(c3cccs3)=NN2C(=O)CCl)cc1 (stereo not shown) [compound 4]
R value (DMSO/fragment) ([1]; 250 μM, in vitro, MDA-MB-231): 1.4
R value (DMSO/fragment) ([1]; 250 μM, in vitro, Ramos): 1.4

Compound: C=CC(=O)N(c1ccccc1)c1ccc(Br)cc1 [compound 5]
isoTOP-ABPP ratio, Q86UV5_C39 ([1]; 500 μM, invitro, ramos): 1.2
isoTOP-ABPP ratio, Q02556_C306 ([2]; 500 μM, invitro, ramos): 2.6

Compound: O=C(CCl)N1CCN(S(=O)(=O)c2ccccc2F)CC1 [compound 10]
isoTOP-ABPP ratio, Q86UV5_C39 ([1]; 500 μM, invitro, 231): 2.5
isoTOP-ABPP ratio, Q02556_C306 ([2]; 500 μM, invitro, ramos): 3.6

Compound: Cn1cc(S(=O)(=O)N2CCOCC2)cc1C(=O)NC(=O)CCl [compound 11]
isoTOP-ABPP ratio, Q86UV5_C39 ([1]; 500 μM, invitro, ramos): 1.0
isoTOP-ABPP ratio, Q02556_C306 ([2]; 500 μM, invitro, ramos): 3.1

Compound: O=C(CCl)NCCc1c[nH]c2ccccc12 [compound 13]
isoTOP-ABPP ratio, Q86UV5_C39 ([1]; 500 μM, invitro, 231): 0.8
isoTOP-ABPP ratio, Q86UV5_C39 ([1]; 500 μM, invitro, ramos): 0.6
isoTOP-ABPP ratio, Q02556_C306 ([2]; 500 μM, invitro, ramos): 0.7

Compound: O=C(CCl)N1CCC(C(O)(c2ccccc2)c2ccccc2)CC1 [compound 20]
isoTOP-ABPP ratio (reactivity profile), Q86UV5_C39 ([1]; 500 μm in-vitro ramos): 1.8
isoTOP-ABPP ratio (reactivity profile), Q86UV5_C39 ([1]; 500 μm in-vitro ramos_231): 1.1
isoTOP-ABPP ratio (reactivity profile), Q02556_C306 ([2]; 500 μm in-vitro ramos): 2.1

Compound: O=C(CCl)NC12CC3CC(CC(C3)C1)C2 [compound 21]
isoTOP-ABPP ratio (reactivity profile), Q86UV5_C39 ([1]; 500 μm in-vitro ramos): 1.2
isoTOP-ABPP ratio (reactivity profile), Q86UV5_C39 ([1]; 500 μm in-vitro ramos_231): 20.0

Compound: CC(C)CCOCCNC(=O)CCl [compound 27]
isoTOP-ABPP ratio (reactivity profile), Q86UV5_C39 ([1]; 500 μm in-vitro ramos_231): 0.8
isoTOP-ABPP ratio (reactivity profile), Q02556_C306 ([2]; 500 μm in-vitro ramos_231): 1.1

Compound: O=C(CCl)N1CCN(CC(=O)N2CCOCC2)CC1 [compound 29]
isoTOP-ABPP ratio (reactivity profile), Q86UV5_C39 ([1]; 500 μm in-vitro ramos_231): 1.2

Compound: CCN(CC)c1ccc(S(N)(=O)=O)cc1NC(=O)CCl [compound 30]
isoTOP-ABPP reactivity ratio, Q02556_C306 [2]: 2.0

Compound: O=C(CCl)Nc1ccccc1C1CCCCCC1 [compound 35]
isoTOP-ABPP reactivity ratio, Q86UV5_C39 ([1]; in-vitro_ramos): 1.0
isoTOP-ABPP reactivity ratio, Q02556_C306 [2]: 1.2

Compound: C=CC(=O)N1CCC(c2noc3ccc(F)cc23)CC1 [compound 37]
isoTOP-ABPP reactivity ratio, Q86UV5_C39 ([1]; in-vitro_ramos): 0.7

Compound: O=C(CCl)Nc1cccc2ncccc12 [compound 51]
isoTOP-ABPP reactivity profile ratio, Q86UV5_C39 ([1]; in-vitro_ramos): 1.8
isoTOP-ABPP reactivity profile ratio, Q02556_C306 [2]: 1.5

Compound: O=C(CCl)Nc1ccc(-c2ccccc2)cc1 [compound 52]
isoTOP-ABPP reactivity profile ratio, Q86UV5_C39 ([1]; in-vitro_ramos_231): 0.9

Other lines, results leading:

R value (DMSO/fragment) ([1]; 500 μM, invitro, ramos): 7.1
Compound: COc1ccc2c(c1)CCCN2C(=O)CCl [compound 2]

R value (DMSO/fragment) ([1]; 500 μM, in vitro, MDA-MB-231): 1.8
R value (DMSO/fragment) ([1]; 500 μM, invitro, ramos): 1.5
R value (DMSO/fragment) ([2]; 500 μM, invitro, ramos): 5.6
Compound: O=C(CCl)Nc1cc(C(F)(F)F)cc(C(F)(F)F)c1 [compound 3]

isoTOP-ABPP ratio (reactivity profile), Q86UV5_C39 ([1]; 500 μm in-vitro ramos): 0.7
isoTOP-ABPP ratio (reactivity profile), Q02556_C306 ([2]; 500 μm in-vitro ramos): 2.1
Compound: C=CC(=O)N(Cc1cccnc1)c1ccc(Oc2ccccc2)c(C(F)(F)F)c1 [compound 15]

isoTOP-ABPP ratio (reactivity profile), Q86UV5_C39 ([1]; 500 μm in-vitro ramos): 1.3
Compound: N#C/C(=C\c1cc(C(F)(F)F)cc(C(F)(F)F)c1)C(N)=O [compound 23]

isoTOP-ABPP ratio (reactivity profile), Q86UV5_C39 ([1]; 500 μm in-vitro ramos): 1.0
isoTOP-ABPP ratio (reactivity profile), Q02556_C306 ([2]; 500 μm in-vitro ramos): 1.2
Compound: CC(Br)C(=O)Nc1cc(C(F)(F)F)cc(C(F)(F)F)c1 (stereo not shown) [compound 24]

isoTOP-ABPP ratio (reactivity profile), Q86UV5_C39 ([1]; 500 μm in-vitro ramos_231): 1.0
Compound: CC(Cl)C(=O)Nc1cc(C(F)(F)F)cc(C(F)(F)F)c1 (stereo not shown) [compound 25]

isoTOP-ABPP reactivity ratio, Q86UV5_C39 ([1]; in-vitro_ramos_231): 3.7
Compound: C=CC(=O)Nc1cc(F)c(N2CCN(C(=O)OC(C)(C)C)CC2)c(F)c1 [compound 38]

isoTOP-ABPP reactivity ratio, Q86UV5_C39 ([1]; in-vitro_ramos): 1.6
isoTOP-ABPP reactivity ratio, Q02556_C306 [2]: 0.9
Compound: C=CC(=O)Nc1cc(C)c(Br)cc1C [compound 40]

isoTOP-ABPP reactivity ratio, Q02556_C306 [2]: 1.4
Compound: Cc1ccc(C=C(C#N)C(=O)NCCN2CCOCC2)cc1 [compound 41]

isoTOP-ABPP reactivity profile ratio, Q02556_C306 [2]: 0.9
Compound: N#CC(=Cc1ccc(-c2ccccc2Cl)o1)C(N)=O [compound 42]

isoTOP-ABPP reactivity profile ratio, Q86UV5_C39 ([1]; in-vitro_ramos_231): 1.5
isoTOP-ABPP reactivity profile ratio, Q02556_C306 [2]: 2.7
Compound: COc1cc(NC(=O)CCl)cc(OC)c1 [compound 43]
